26 molecules from patent publication US20100190747A1, “Fused ring compound and use thereof” (priority 2009, published 2010) can be followed below.

As a reminder, the inhibition is the drop in the measured response relative to a control, in per cent.

The target in this assay is T1, delta-5-desaturase (Rattus norvegicus, UniProt Q920R3).
T1 construct: the microsomal fraction of a rat river (10 μl), which had been diluted to 3 mg/ml; from tissue; host or cells: rat liver microsomal fraction
T1 sequence (Q920R3 whole entry): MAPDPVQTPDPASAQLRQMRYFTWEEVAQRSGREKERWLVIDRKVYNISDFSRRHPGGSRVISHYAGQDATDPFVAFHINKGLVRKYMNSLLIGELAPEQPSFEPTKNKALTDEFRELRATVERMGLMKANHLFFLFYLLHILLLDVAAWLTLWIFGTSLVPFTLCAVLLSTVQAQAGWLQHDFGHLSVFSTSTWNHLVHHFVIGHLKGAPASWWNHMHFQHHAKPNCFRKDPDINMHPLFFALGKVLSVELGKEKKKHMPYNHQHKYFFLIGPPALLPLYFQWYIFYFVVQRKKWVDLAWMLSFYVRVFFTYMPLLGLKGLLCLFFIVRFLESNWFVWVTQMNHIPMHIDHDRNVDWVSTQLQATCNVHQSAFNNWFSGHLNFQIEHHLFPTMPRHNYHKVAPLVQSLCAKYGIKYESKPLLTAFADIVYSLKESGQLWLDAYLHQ
The experiment in a line: Inhibitory activity on delta-5-desaturase (rat liver microsomal fraction, 14C-eicosatrienoic acid, TLC). The class given is biochemical. Particulars: test compound at 10 μM, room temperature, 120 minutes. Here is the method:
An inhibitory activity of a test compound on delta-5-desaturase was measured according to the method described herein below. To a DMSO solution of the test compound which had been previously prepared, secondary dilution was carried out by using a buffer (300 mM NaH2PO4 [pH 7.4], 450 mM KCl, 30 mM NaF, 9 mM MgCl2, 4.5 mM glutathione [reduced form], 0.3% BSA [fatty acid free, SIGMA]). This diluent compound (10 μl) was added in a 96-well deep well block made of polypropylene, and then the microsomal fraction of a rat river (10 μl), which had been diluted to 3 mg/ml by using a microsome buffer (10 mM Tris-HCl [pH 7.4], 1 mM EDTA, and 250 mM sucrose), was added thereto. The enzyme reaction was initiated by adding 10 μl of 9 mM NADH, 9 mM ATP, 0.9 mM CoA and 10 μCi/ml (8E,11E,14E)-(1-^14C)eicosa-8,11,14-trienoic acid (PerkinElmer Inc.). The enzyme reaction was carried out at room temperature for 120 minutes, and then terminated by addition of 2.5 M NaOH (10 μl). Upon the completion of the reaction, the plate was covered with plate seal and incubated overnight in a dry heater of which temperature was set at 55° C. for saponification. Based on Bligh & Dyer method which had been described in a known document, Canadian Journal of Biochemistry and Physiology (Can. J. Biochem. Physiol.), Vol. 37, page 911, 1959), the solvent extraction of fatty acid was carried out by adding 200 μl of formic acid:methanol:chloroform (1:6:3), keeping the mixture as a single layer for a while, stirring the mixture to a sufficient level, and adding 120 μl of pure water to separate the mixture into two layers. 10 μl of the bottom chloroform layer was spotted on a reverse phase TLC plate (RP-18, 1154230001, Merck Japan, Ltd.) and then developed with acetonitrile:pure water:acetic acid (95:4.5:0.5). The TLC plate obtained after drying was transferred to an Imaging Plate (Fuji Photo Film Co., Ltd.) for more than 5 hours. Detection was carried out by using BAS-5000 (Fuji Photo Film Co., Ltd.). Numerization of thus-obtained image was carried out by using Multi Gauge Ver 2.3 (Fuji Photo Film Co., Ltd.) and an inhibitory ratio (%) of the test compound at 10 μM on delta-5-desaturase was obtained.
On the technique in general: Liver microsomes are vesicles of endoplasmic reticulum, rich in cytochrome P450 enzymes.
`O=c1c2[nH]ccc2nc(SCCCOC2CCOCC2)n1-c1ccc(OCC(F)(F)F)cc1` [Example 158, 2-{[3-(Tetrahydro-2H-pyran-4-yloxy)propyl]sulfanyl}-3-[4-(2,2,2-trifluoroethoxy)phenyl]-3,5-dihydro-4H-pyrrolo[3,2-d]pyrimidin-4-one]: the inhibition at 10 µM was 99%.
Then `O=c1c2[nH]ccc2nc(SCCCN2CCOCC2)n1-c1ccc(OCC(F)(F)F)cc1` [Example 112, 2-[(3-Morpholin-4-ylpropyl)sulfanyl]-3-[4-(2,2,2-trifluoroethoxy)phenyl]-3,5-dihydro-4H-pyrrolo[3,2-d]pyrimidin-4-one], with 102%; and `CC(C)COc1nc2c(c(=O)n1-c1ccc(OCC(F)(F)F)cc1)CC(=O)N2` [Example 318, 2-(2-Methylpropoxy)-3-[4-(2,2,2-trifluoroethoxy)phenyl]-5,7-dihydro-3H-pyrrolo[2,3-d]pyrimidine-4,6-dione], with 103%; and `CCSc1nc2c(c(=O)n1-c1ccc(OCC(F)(F)C(F)(F)F)cc1)CC(=O)N2` [Example 269, 2-(Ethylsulfanyl)-3-[4-(2,2,3,3,3-pentafluoropropoxy)phenyl]-5,7-dihydro-3H-pyrrolo[2,3-d]pyrimidine-4,6-dione], with 99%.
For `COCCOCCCSc1nc2[nH]ccc2c(=O)n1-c1ccc(OCC(F)(F)F)cc1` [Example 191, 2-{[3-(2-Methoxyethoxy)propyl]sulfanyl}-3-[4-(2,2,2-trifluoroethoxy)phenyl]-3,7-dihydro-4H-pyrrolo[2,3-d]pyrimidin-4-one] the value was 101%; for `O=C1Cc2c(nc(OCC(F)(F)F)n(-c3ccc(OCC(F)(F)C(F)(F)F)cc3)c2=O)N1` [Example 306, 3-[4-(2,2,3,3,3-Pentafluoropropoxy)phenyl]-2-(2,2,2-trifluoroethoxy)-5,7-dihydro-3H-pyrrolo[2,3-d]pyrimidine-4,6-dione], 99%; for `CS(=O)(=O)CCCSc1nc2c(c(=O)n1-c1ccc(OCC3CC3)cc1)CC(=O)N2` [Example 301, 3-[4-(Cyclopropylmethoxy)phenyl]-2-{[3-(methylsulfonyl)propyl]sulfanyl}-5,7-dihydro-3H-pyrrolo[2,3-d]pyrimidine-4,6-dione], 99%.
Regarding `CCOc1nc2c(c(=O)n1-c1ccc(OCC(F)(F)C(F)(F)F)cc1)CC(=O)N2` [Example 277, 2-Ethoxy-3-[4-(2,2,3,3,3-pentafluoropropoxy)phenyl]-5,7-dihydro-3H-pyrrolo[2,3-d]pyrimidine-4,6-dione], the inhibition at 10 µM is 94%.
Then `CCCSc1nc2c(c(=O)n1-c1ccc(OCC(F)(F)F)cc1)CC(=O)N2` [Example 286, 2-(Propylsulfanyl)-3-[4-(2,2,2-trifluoroethoxy)phenyl]-5,7-dihydro-3H-pyrrolo[2,3-d]pyrimidine-4,6-dione], with 102%.
For `CCSc1nc2c(c(=O)n1-c1ccc(OCC3CC3)cc1)CC(=O)N2` [Example 300, 3-[4-(Cyclopropylmethoxy)phenyl]-2-(ethylsulfanyl)-5,7-dihydro-3H-pyrrolo[2,3-d]pyrimidine-4,6-dione] the value was 101%.
Take `CSc1nc2c(c(=O)n1-c1ccc(OCC(F)(F)F)cc1)CC(=O)N2` [Example 267, 2-(Methylsulfanyl)-3-[4-(2,2,2-trifluoroethoxy)phenyl]-5,7-dihydro-3H-pyrrolo[2,3-d]pyrimidine-4,6-dione]: the inhibition at 10 µM amounted to 100%.
In the case of `CCSc1nc2[nH]ccc2c(=O)n1-c1ccc(OCC2CC2)cc1` [Example 208, 3-[4-(Cyclopropylmethoxy)phenyl]-2-(ethylsulfanyl)-3,7-dihydro-4H-pyrrolo[2,3-d]primidin-4-one], the inhibition at 10 µM was 100%.
For `CCOCCOCCSc1nc2cc[nH]c2c(=O)n1-c1ccc(OCC2CC2)cc1` [Example 142, 3-[4-(Cyclopropylmethoxy)phenyl]-2-{[2-(2-ethoxyethoxy)ethyl]sulfanyl}-3,5-dihydro-4H-pyrrolo[3,2-d]pyrimidin-4-one] the value was 98%; for `O=C1Cc2c(nc(SCC(F)(F)F)n(-c3ccc(OCC(F)(F)C(F)(F)F)cc3)c2=O)N1` [Example 347, 3-[4-(2,2,3,3,3-Pentafluoropropoxy)phenyl]-2-[(2,2,2-trifluoroethyl)sulfanyl]-5,7-dihydro-3H-pyrrolo[2,3-d]pyrimidine-4,6-dione], 100%; for `O=c1c2[nH]ccc2nc(SCCOC2CCOCC2)n1-c1ccc(OCC2CC2)cc1` [Example 147, 3-[4-(Cyclopropylmethoxy)phenyl]-2-{[2-(tetrahydro-2H-pyran-4-yloxy)ethyl]sulfanyl}-3,5-dihydro-4H-pyrrolo[3,2-d]pyrimidin-4-one], 98%.
With `O=c1c2[nH]ccc2nc(SCCCOC2CCOCC2)n1-c1ccc(OCC2CC2)cc1` [Example 157, 3-[4-(Cyclopropylmethoxy)phenyl]-2-{[3-(tetrahydro-2H-pyran-4-yloxy)propyl]sulfanyl}-3,5-dihydro-4H-pyrrolo[3,2-d]pyrimidin-4-one], the inhibition at 10 µM worked out at 101%.
Then `N#CCCNC(=O)CCCSc1nc2cc[nH]c2c(=O)n1-c1ccc(OCC2CC2(F)F)cc1` (centres unmarked) [Example 95, N-(2-cyanoethyl)-4-[(3-{4-[(2,2-difluorocyclopropyl)methoxy]phenyl}-4-oxo-4,5-dihydro-3H-pyrrolo[3,2-d]pyrimidin-2-yl)sulfanyl]butanamide], with 100%; and `O=c1c2cc[nH]c2nc(OCC(F)F)n1-c1ccc(OCC(F)(F)F)cc1` [Example 244, 2-(2,2-Difluoroethoxy)-3-[4-(2,2,2-trifluoroethoxy)phenyl]-3,7-dihydro-4H-pyrrolo[2,3-d]pyrimidin-4-one], with 101%; and `O=c1c2[nH]ccc2nc(SCCOC2CCOCC2)n1-c1ccc(OCC(F)(F)F)cc1` [Example 159, 2-{[2-(Tetrahydro-2H-pyran-4-yloxy)ethyl]sulfanyl}-3-[4-(2,2,2-trifluoroethoxy)phenyl]-3,5-dihydro-4H-pyrrolo[3,2-d]pyrimidin-4-one], with 99%.
In the case of `O=c1c2[nH]ccc2nc(SCCCS(=O)(=O)CC2CC2)n1-c1ccc(OCC2CC2)cc1` [Example 166, 3-[4-(Cyclopropylmethoxy)phenyl]-2-({3-[(cyclopropylmethyl)sulfonyl]propyl}sulfanyl)-3,5-dihydro-4H-pyrrolo[3,2-d]pyrimidin-4-one], the inhibition at 10 µM is 101%.
Then `COCCOCCCSc1nc2cc[nH]c2c(=O)n1-c1ccc(OCC2CC2)cc1` [Example 141, 3-[4-(Cyclopropylmethoxy)phenyl]-2-{[3-(2-methoxyethoxy)propyl]sulfanyl}-3,5-dihydro-4H-pyrrolo[3,2-d]pyrimidin-4-one], with 100%; and `N#CCCCCSc1nc2cc[nH]c2c(=O)n1-c1ccc(OCC(F)(F)F)cc1` [Example 87, 5-({4-Oxo-3-[4-(2,2,2-trifluoroethoxy)phenyl]-4,5-dihydro-3H-pyrrolo[3,2-d]pyrimidin-2-yl}sulfanyl)pentanenitrile], with 99%; and `O=c1c2[nH]ccc2nc(SCCO)n1-c1ccc(OCC(F)(F)F)cc1` [Example 127, 2-[(2-Hydroxyethyl)sulfanyl]-3-[4-(2,2,2-trifluoroethoxy)phenyl]-3,5-dihydro-4H-pyrrolo[3,2-d]pyrimidin-4-one], with 102%.
For `O=C1Cc2c(nc(OCCC(F)(F)F)n(-c3ccc(OCC(F)(F)F)cc3)c2=O)N1` [Example 341, 3-[4-(2,2,2-Trifluoroethoxy)phenyl]-2-(3,3,3-trifluoropropoxy)-5,7-dihydro-3H-pyrrolo[2,3-d]pyrimidine-4,6-dione] the value was 99%.
Regarding `O=c1c2[nH]ccc2nc(SCC(F)(F)F)n1-c1ccc(OCC(F)(F)F)cc1` [Example 103, 3-[4-(2,2,2-Trifluoroethoxy)phenyl]-2-[(2,2,2-trifluoroethyl)sulfanyl]-3,5-dihydro-4H-pyrrolo[3,2-d]pyrimidin-4-one], the inhibition at 10 µM was 100%.
For `O=C1Cc2c(nc(OCCC3CC3)n(-c3ccc(OCC(F)(F)F)cc3)c2=O)N1` [Example 319, 2-(2-Cyclopropylethoxy)-3-[4-(2,2,2-trifluoroethoxy)phenyl]-5,7-dihydro-3H-pyrrolo[2,3-d]pyrimidine-4,6-dione] the value was 104%.
